Data set [1] deals with Enterococcus faecalis. Description: Antibacterial activity against multidrug resistant Enterococcus faecalis ATCC 51299 infected in cyclophosphamide immunosuppressed mouse model of abdominal infection assessed as eradication of bacterial colonies in ascites at 5 mg/kg measured after 60 hrs relative to control. It counts as functional.
Data set [2] relates to Staphylococcus aureus. Description: Antibacterial activity against methicillin resistant Staphylococcus aureus clinical isolate 011. It counts as functional.
Data set [3] relates to Staphylococcus aureus. Briefly: Antibacterial activity against Staphylococcus aureus clinical isolate 31. It counts as functional.
In data set [4] the test system is Enterococcus faecalis. Description: Antibacterial activity against multidrug resistant Enterococcus faecalis ATCC 51299. It is filed as functional.
For data set [5], the system named is Staphylococcus aureus. Briefly: Antibacterial activity against methicillin resistant Staphylococcus aureus clinical isolate 003. It counts as functional.
For data set [6], the system named is Staphylococcus aureus. Description: Antibacterial activity against methicillin resistant Staphylococcus aureus clinical isolate 031. It counts as functional.
Data set [7] relates to Enterococcus faecalis. Description: Antibacterial activity against multidrug resistant Enterococcus faecalis ATCC 51299 infected in cyclophosphamide immunosuppressed mouse model of abdominal infection assessed as eradication of bacterial colonies in liver at 5 mg/kg measured after 60 hrs relative to control. It counts as functional.
In data set [8] the test system is Enterococcus faecalis. Briefly: Antibacterial activity against Enterococcus faecalis clinical isolate 13. It counts as functional.
Data set [9] concerns Staphylococcus aureus. Description: Antibiofilm activity in methicillin resistant Staphylococcus aureus clinical isolate 003 by crystal violet staining based analysis. It is filed as functional.
Data set [10] deals with Enterococcus faecalis. Briefly: Antibacterial activity against multidrug resistant Enterococcus faecalis ATCC 51299 infected in cyclophosphamide immunosuppressed mouse model of abdominal infection assessed as eradication of bacterial colonies in kidney at 5 mg/kg measured after 60 hrs relative to control. It is filed as functional.
Data set [11] has as its system Enterococcus faecalis. Description: Antibiofilm activity in multidrug resistant Enterococcus faecalis ATCC 51299 by crystal violet staining based analysis. It counts as functional.
Data set [12] deals with Enterococcus faecalis. Description: Antibacterial activity against multidrug resistant Enterococcus faecalis ATCC 51299 assessed as resistance development by measuring fold increase in MIC measured after 20 passages. It counts as functional.
For data set [13], the system named is Staphylococcus aureus. Description: Antibacterial activity against Staphylococcus aureus clinical isolate 29. It is filed as functional.
The test system of data set [14] is Enterococcus faecalis. Briefly: Antibacterial activity against multidrug resistant Enterococcus faecalis ATCC 51299 infected in cyclophosphamide immunosuppressed mouse model of abdominal infection assessed as eradication of bacterial colonies in spleen at 5 mg/kg measured after 60 hrs relative to control. It counts as functional.
Data set [15] deals with Enterococcus faecalis. Description: Antibacterial activity against Enterococcus faecalis clinical isolate 7. It counts as functional.
Data set [16] has as its system Staphylococcus aureus. Description: Antibacterial activity against methicillin resistant Staphylococcus aureus clinical isolate 003 infected in cyclophosphamide immunosuppressed mouse model of skin wound infection assessed as wound healing at 5 mg/kg administered for 7 days and measured on day 8. It counts as functional, organism-based. The settings on record: time 8.0 day.

In data set [17] the test system is Staphylococcus aureus. Description: Antibacterial activity against methicillin resistant Staphylococcus aureus clinical isolate 003 infected in cyclophosphamide immunosuppressed mouse model of skin wound infection assessed as reduction in bacterial load in wound at 5 mg/kg administered for 7 days and measured on day 8 (reference value: 1.6 x 10^8 CFU). The settings on record: time 8 day. It counts as functional.

Data set [18] in a line: Toxicity in Galleria mellonella assessed as survival rate at 10 mg/kg observed after 7 days. It is filed as organism-based. The settings on record: in vivo, time 7 day.

≈ marks a conversion by molar mass, not a printed value. Calls of active or inactive are those of the source. The rule behind the calls is not given here.

The values that follow come from ChEMBL document CHEMBL5512659, “Structure optimizing of flavonoids against both MRSA and VRE” (Eur J Med Chem, 2024).

For `CC1(C)S[C@@H]2[C@H](NC(=O)[C@H](N)c3ccccc3)C(=O)N2[C@H]1C(=O)O` [AMPICILLIN], the Activity was 89.18% with Enterococcus faecalis [1], 90.58% in the data set on Enterococcus faecalis [7], 95.99% in the data set on Enterococcus faecalis [10] and 83.11% in the data set with Enterococcus faecalis [14]. The minimal inhibitory concentration (MIC) in the data set on Staphylococcus aureus [2] was over 128 µg/mL; against Staphylococcus aureus [3] it was 2 µg/mL (≈ 5.72 µM); with Enterococcus faecalis [4], 2 µg/mL (≈ 5.72 µM); with Staphylococcus aureus [5] it was over 128 µg/mL; in the data set with Staphylococcus aureus [6], over 128 µg/mL; against Enterococcus faecalis [8], 2 µg/mL (≈ 5.72 µM). The MIC against Staphylococcus aureus [13] and with Enterococcus faecalis [15] was 2 µg/mL (≈ 5.72 µM) throughout. For the same compound, the MBEC in the data set with Staphylococcus aureus [9] and in the data set on Enterococcus faecalis [11] was over 256 µg/mL in each case. The “fold change (FC)” value with Enterococcus faecalis [12] is listed as 16.
For the compound `CN[C@H](CC(C)C)C(=O)N[C@H]1C(=O)N[C@@H](CC(N)=O)C(=O)N[C@H]2C(=O)N[C@H]3C(=O)N[C@H](C(=O)N[C@H](C(=O)O)c4cc(O)cc(O)c4-c4cc3ccc4O)[C@H](O)c3ccc(c(Cl)c3)Oc3cc2cc(c3O[C@@H]2O[C@H](CO)[C@@H](O)[C@H](O)[C@H]2O[C@H]2C[C@](C)(N)[C@H](O)[C@H](C)O2)Oc2ccc(cc2Cl)[C@H]1O` [VANCOMYCIN], the outcome in the data set with Staphylococcus aureus [16] was Active. The MIC against Enterococcus faecalis [4] is over 128 µg/mL; against Enterococcus faecalis [8], 2 µg/mL (≈ 1.38 µM). Further, the Activity with Staphylococcus aureus [17] is 5.1 10^6CFU. In addition, the MBEC in the data set with Staphylococcus aureus [9] and in the data set on Enterococcus faecalis [11] was over 256 µg/mL each time. Also, in data set [18], the survival at 168 h amounted to 80%.
As for `CCCCCCc1c(-c2ccc(OCCCCN3CCCCC3)cc2OCCCCN2CCCCC2)oc2cc(OC)cc(O)c2c1=O`, the MIC was determined as 1 µg/mL (≈ 1.51 µM) against Staphylococcus aureus [2]; 1 µg/mL (≈ 1.51 µM) against Staphylococcus aureus [3]; 2 µg/mL (≈ 3.02 µM) in the data set with Enterococcus faecalis [4]; 2 µg/mL (≈ 3.02 µM) in the data set on Staphylococcus aureus [5]; 2 µg/mL (≈ 3.02 µM) with Staphylococcus aureus [6]; 1 µg/mL (≈ 1.51 µM) against Enterococcus faecalis [8]. For the same compound, the minimal inhibitory concentration (MIC) with Staphylococcus aureus [13] and against Enterococcus faecalis [15] was 2 µg/mL (≈ 3.02 µM) each time.
`CCCCCCc1c(-c2ccc(OCCCCCCN(C)C)cc2OCCCCCCN(C)C)oc2cc(OC)cc(O)c2c1=O`: the MIC with Staphylococcus aureus [2] came to 4 µg/mL (≈ 6.26 µM); with Staphylococcus aureus [3] it was 2 µg/mL (≈ 3.13 µM); in the data set with Enterococcus faecalis [4], 4 µg/mL (≈ 6.26 µM); against Staphylococcus aureus [5], 2 µg/mL (≈ 3.13 µM); in the data set with Staphylococcus aureus [6], 2 µg/mL (≈ 3.13 µM); in the data set on Enterococcus faecalis [8], 1 µg/mL (≈ 1.57 µM). Further, the minimal inhibitory concentration (MIC) against Staphylococcus aureus [13] came to 2 µg/mL (≈ 3.13 µM); with Enterococcus faecalis [15], 4 µg/mL (≈ 6.26 µM).

Usually MIC stands for the least concentration at which growth counts as inhibited. Low values mean a more susceptible organism, high ones a less susceptible organism.
